In PMC6010047, “Design, synthesis and biological evaluation of novel hydroxy-phenyl-1H-benzimidazoles as radical scavengers and UV-protective agents” (Journal of Enzyme Inhibition and Medicinal Chemistry, 2017):
Like-named read-outs stand apart in the source and are kept apart here.

Columns and labels:
[1] = tested on: NCTC-2544 cells; assay: Phototoxicity / cellular photoprotection, UVA or UVB irradiation, MTT test; details: Homo sapiens, NCTC-2544, light or radiation study, 48 h
Description: An immortalized, nontumorigenic cell line of human keratinocytes (NCTC-2544) was grown in a DMEM medium (Sigma-Aldrich Milan, Italy), supplemented with 115 units/mL of penicillin G, 115 μg/mL streptomycin, and 10% fetal calf serum (Invitrogen, Milan, Italy). Individual wells of a 96-well tissue culture microtiter plates (Falcon, Becton–Dickinson) were inoculated with 100 μL of complete medium containing 5 × 10^3 NCTC-2544. The plates were incubated at 37 °C in a humidified (5% CO2) incubator for 18 h prior to the experiments.
Two HPW 125 Philips lamps, mainly emitting at 365 nm, were used for UVA irradiation experiments. The spectral irradiance of the source was 4.0 mWcm^−^2 as measured at the sample level by a Cole-Parmer Instrument Company radiometer (Niles, IL) equipped with a 365-CX sensor. One or two PL-S 9 W/12 Philips lamps (280–370 nm; peak at 315 nm) were used for UVB irradiation experiments. To restrict the incident radiation to the range 305–370 nm, a glass filter (Schott SWG-305) was used. Total energy was detected by the same equipped with a sensor (model CX-312).
After medium removal, 100 μL of the drug solution, dissolved in DMSO and diluted with Hank’s Balanced Salt Solution (HBSS pH =7.2), was added to each well, incubated at 37 °C for 30 min, and then irradiated (20 J/cm^2 for UVA and 0.5 and 1 J/cm^2 for UVB). After irradiation, the solution was replaced with the medium and the plates were further incubated for 48 h. Cell viability was assayed by the MTT [(3–(4,5-dimethylthiazol-2-yl)-2,5 diphenyl tetrazolium bromide)] test as previously described by Mosmann[27].
Molecules were verified for their photocytotoxicity in the same cell line; the cells were treated with 50 μM solutions of compound and after 30 min were irradiated with 20 J/cm^2 UVA or with UVB at two energy amounts: 0.5 J/cm^2 and 1 J/cm^2 UVB. […] After irradiation, the solution was replaced with growth medium and the cells were further incubated for 48 h, and then, cell viability was assessed by MTT assay. […] The phototoxicity of tested molecules was compared with the ratio of cell survival of irradiated keratinocytes without substance (IC = irradiated control).

[2] = Ferric reducing antioxidant of potency (FRAP) assay; assay type: biochemical; details: Trolox equivalents; mean ± SE of three experiments
Description: The ferric reducing ability of each standard solution was measured according to a modified protocol described by Guihua et al.[26]. The reagent for analysis was freshly prepared by mixing the following solutions in the reported ratio 10/1/1 (v:v:v) (i) 0.1 M acetate buffer pH 3.6, (ii) TPTZ (2,4,6-Tri(2-pyridyl)-s-triazine) 10 mmol/L in 40 mmol/HCl, (iii) ferric chloride 20 mmol/L. To a 1.9 mL of reagent were added 0.1 mL of sample proper diluted or solvent when blank was performed. Readings at fixed wavelength of the absorption maximum (593 nm) were done after 30 min, using a UV-VIS spectrophotometer; it was evaluated the absorbance increase of sample solution against the absorbance of blank reaction as parameter to calculate the antioxidant activity. The antioxidant activity is given as Trolox activity since this standard was used to perform the calibration curves.

[3] = Cytotoxicity, MTT test, 72 h; details: human, NCTC-2544 keratinocytes (immortalized, nontumorigenic)
[4] = 1,1-Diphenyl-2-picryl-hydrazyl radical (DPPH) assay; assay type: biochemical; details: Trolox equivalents; mean ± SE of three experiments
Description: To 1.5 mL DPPH methanolic solution (0.5 mM) was added 0.750 mL of sample solution proper diluted. Samples absorbance measurements were evaluated with a UV-VIS spectrophotometer (Thermo Spectronic Helios γ, Cambridge, UK) at fixed wavelength of 517 nm. Blank sample was prepared adding methanol to DPPH solution and Trolox was used as standard reference to achieve a calibration curve. The radical-scavenging activity is expressed as inhibition ratio of initial concentration of DPPH radical and is calculated according to the formula: Inhibition percentage (Ip) = [(AB-As)/AB]·100; where AB and As are, respectively, the absorbance values of blank reaction and of the tested sample[25].

[5] = UV spectra: λmax and molar extinction coefficient; assay type: physicochemical
Description: Sun protection factor (SPF) is related to the UV absorption of the substances, so before including the molecules in cosmetic formulations we evaluated the wavelength of maximum absorption (λmax) and the molar extinction coefficient (ɛ) of each molecule in aqueous solution at pH 7. The UV spectra were recorded between 270 and 420 nm (20 nm higher and lower then UVA and UVB range) to verify the spectrum profile of the molecules within UVA and UVB region. UV spectrum of PBSA is an UVB filter and presents a λmax of 302 nm; after this peak, the absorbance fades going to higher wavelength until almost zero around 325 nm, and then, it provides no absorption in the UVA region. Molecules spectra overlapped for category according to the substituent in position 5 of the benzimidazole ring are shown in Figures 1, 2 and 3; PBSA spectrum is presented in all figures for comparison.
From the spectra appears that the lambda maxima (Table 2) of the new molecules shifted toward higher wavelength and in general the range of absorption curve was wider than PBSA. Within a group of molecules, the batochromic shift was more marked for the molecules that have a hydroxyl moiety in position 2 of the phenyl ring (4, 5, 6, 9, 10, 11, 13 and […]); the effect of ortho substituted is known to produce this shift toward higher wavelength. Increasing the number of auxochrome groups on phenyl ring an increment in the absorption range occurred, compounds with three hydroxyl on the phenyl ring (6, 11, 15) had the broadest spectrum and their lambda maxima shifted at the highest wavelength compared to the other compounds. The absorption spectrum of molecules with the same number and position of hydroxyl seemed only slightly influenced by the substituent in position 5 of the benzimidazole ring. After having established the lambda maxima for every compound, solutions at different concentrations were prepared to calculate the molar extinction coefficient by means of linear regression and applying Lambert–Beer equation (Table 2).

Question: For `Oc1ccc(-c2nc3ccccc3[nH]2)cc1` [Compound 7, 2-(4-Hydroxy-phenyl)-1H-benzimidazole], which viability at 20 µM ([1]; read-out: % Cell survival UVA 20 J/cm^2) is on record?
Answer: 72.8 ± 2.9%

Question: And the viability at 20 µM ([1]; read-out: % Cell survival UVB 0.5 J/cm^2)?
Answer: 74.2 ± 1.3%

Question: What about the viability at 20 µM ([1]; read-out: % Cell survival UVB 1 J/cm^2) of the same molecule?
Answer: 44 ± 4.1%

Question: What about the FRAP [2] of the same molecule?
Answer: 21.94 ± 0.12 μmolTrolox/mmol

Question: And the IC50 at 72 h [3]?
Answer: 26.1 ± 2.4 µM

Question: And the DPPH [4]?
Answer: 1.67 ± 0.08 μmolTrolox/mmol

Question: What about the λ max ([5]; aqueous solution at pH 7) of the same molecule?
Answer: 306 nm

Question: What about the “ɛ (molar extinction coefficient)” value ([5]; aqueous solution at pH 7, at λ max, linear regression Lambert–Beer) of the same molecule?
Answer: 24 000
